Results published in patent US11964953B2, “Substituted aminothiazoles as DGKzeta inhibitors for immune activation” (Bayer Aktiengesellschaft, priority 2020, dated 2024).

target: human DGKζ (Homo sapiens (Human), UniProt Q13574); experiment: Human DGKζ kinase activity inhibition assay (ADP-Glo); assay type: biochemical; settings: IC50, in vitro human DGKζ kinase activity inhibition assay
Outline: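 ADP-Glo luminescence, reflecting ADP produced, served as the readout of activity. Full-length human DGKζ, FLAG-tagged at the C-terminus and insect-cell expressed, was used; lipid substrate mix was sonicated with octyl-β-D-glucopyranoside in 50 mM MOPS pH 7.4.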

human DGKζ, sequence (Q13574 other isoform, or with tags, fused parts or gaps): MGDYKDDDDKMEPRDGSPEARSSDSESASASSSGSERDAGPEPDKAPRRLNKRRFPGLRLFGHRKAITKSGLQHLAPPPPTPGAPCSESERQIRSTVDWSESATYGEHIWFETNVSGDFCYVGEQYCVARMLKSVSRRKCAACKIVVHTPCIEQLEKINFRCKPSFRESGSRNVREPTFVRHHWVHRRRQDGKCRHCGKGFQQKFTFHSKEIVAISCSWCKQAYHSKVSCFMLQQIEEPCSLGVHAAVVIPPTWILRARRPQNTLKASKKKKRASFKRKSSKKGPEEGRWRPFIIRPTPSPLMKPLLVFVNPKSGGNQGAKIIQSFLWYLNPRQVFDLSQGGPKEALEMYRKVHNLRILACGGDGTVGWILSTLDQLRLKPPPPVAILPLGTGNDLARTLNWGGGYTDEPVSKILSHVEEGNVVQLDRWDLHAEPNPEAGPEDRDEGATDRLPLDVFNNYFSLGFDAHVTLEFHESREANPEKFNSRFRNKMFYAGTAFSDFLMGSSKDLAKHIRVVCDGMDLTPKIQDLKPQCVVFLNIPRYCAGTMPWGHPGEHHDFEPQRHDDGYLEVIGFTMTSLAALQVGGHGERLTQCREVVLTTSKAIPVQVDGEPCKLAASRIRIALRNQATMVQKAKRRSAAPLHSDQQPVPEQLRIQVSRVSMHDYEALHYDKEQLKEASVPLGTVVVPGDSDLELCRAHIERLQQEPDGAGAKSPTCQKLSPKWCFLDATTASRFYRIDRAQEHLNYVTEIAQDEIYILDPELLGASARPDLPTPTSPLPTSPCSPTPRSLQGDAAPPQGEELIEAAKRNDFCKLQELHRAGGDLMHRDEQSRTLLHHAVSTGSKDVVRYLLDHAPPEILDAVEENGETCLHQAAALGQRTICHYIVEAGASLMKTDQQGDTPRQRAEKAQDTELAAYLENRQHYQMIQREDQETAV

Structure (SMILES) | IC50
Cc1cccc(N(C)C(=O)COc2ccc(C(=O)c3sc(N(c4ccc(F)cc4)C(C)C(N)=O)nc3N)cc2)c1 (racemic) [Example 140, rac-2-(N-[4-amino-5-[4-[2-(N,3-dimethylanilino)-2-oxo-ethoxy]benzoyl]thiazol-2-yl]-4-fluoro-anilino)propanamide] | 37.5 nM

same assay, conditions: in vitro human DGKζ kinase activity inhibition assay; read-out: IC50

Structure (SMILES) | IC50
CC(C(N)=O)N(c1ccc2c(c1)OC(F)(F)O2)c1nc(N)c(C(=O)c2ccc(OC(F)F)nc2)s1 (racemic) [Example 216, rac-2-[[4-amino-5-[6-(difluoromethoxy)pyridine-3-carbonyl]thiazol-2-yl]-(2,2-difluoro-1,3-benzodioxol-5-yl)amino]propanamide] | 32 nM
CC(C(N)=O)N(c1ccc(F)cc1)c1nc(N)c(C(=O)c2ccc(OCc3ccccc3)cc2)s1 (racemic) [Example 170, rac-2-(N-[4-amino-5-(4-benzyloxybenzoyl)thiazol-2-yl]-4-fluoro-anilino)propanamide] | 7 nM
CC(C(N)=O)N(c1ccc(F)cc1)c1nc(N)c(C(=O)c2ccc(OCC(=O)N(C)Cc3cccnc3)cc2)s1 (racemic) [Example 137, rac-2-(N-[4-amino-5-[4-[2-[methyl(3-pyridylmethyl)amino]-2-oxo-ethoxy]benzoyl]thiazol-2-yl]-4-fluoro-anilino)propanamide] | 238 nM
CC(Oc1ccc(C(=O)c2sc(N(c3ccccc3)C(C)C(N)=O)nc2N)cc1)C(N)=O (single isomer, unassigned) [Example 45.1, 2-(N-[4-amino-5-[4-[2-amino-1-methyl-2-oxo-ethoxy]benzoyl]thiazol-2-yl]anilino)propanamide] | 201 nM
Cc1ccc(N(c2nc(N)c(C(=O)c3ccccc3)s2)C(C)C(N)=O)cc1 (single isomer, unassigned) [Example 73.1, 2-(N-(4-amino-5-benzoyl-thiazol-2-yl)-4-methyl-anilino)propanamide] | 3720 nM
CC(C(N)=O)N(c1ccc(Cl)c(F)c1)c1nc(N)c(C(=O)c2ccc(C(=O)NCCOC(C)(C)C)cc2)s1 (racemic) [Example 271, rac-4-[4-amino-2-(N-(2-amino-1-methyl-2-oxo-ethyl)-4-chloro-3-fluoro-anilino)thiazole-5-carbonyl]-N-(2-tert-butoxyethyl)benzamide] | 18 nM
Cc1cccc(CNC(=O)COc2ccc(C(=O)c3sc(N(c4ccc(F)cc4)C(C)C(N)=O)nc3N)cc2)c1 (racemic) [Example 83, rac-2-(N-[4-amino-5-[4-[2-(m-tolylmethylamino)-2-oxo-ethoxy]benzoyl]thiazol-2-yl]-4-fluoro-anilino)propanamide] | 24.3 nM
COc1ccc(C(=O)c2sc(N(c3ccc(F)c(Cl)c3)C(C)C(N)=O)nc2N)cc1 (racemic) [Example 161, rac-2-(N-[4-amino-5-(4-methoxybenzoyl)thiazol-2-yl]-3-chloro-4-fluoro-anilino)propanamide] | 15 nM
CC(C(N)=O)N(c1ccc(Cl)nc1)c1nc(N)c(C(=O)c2ccccc2)s1 (racemic) [Example 232, rac-2-[(4-amino-5-benzoyl-thiazol-2-yl)-(6-chloro-3-pyridyl)amino]propanamide] | 112 nM
CC(C(N)=O)N(c1cccnc1)c1nc(N)c(C(=O)c2ccccc2)s1 (racemic) [Example 79, rac-2-[(4-amino-5-benzoyl-thiazol-2-yl)-(3-pyridyl)amino]propanamide] | 6790 nM
Cc1ccccc1N(c1nc(N)c(C(=O)c2ccccc2)s1)C(C)C(N)=O (racemic) [Example 77, rac-2-(N-(4-amino-5-benzoyl-thiazol-2-yl)-2-methyl-anilino)propanamide] | 533 nM
COc1ccc(C(=O)c2sc(N(c3ccc(F)c(F)c3)C(C)C(N)=O)nc2N)cn1 (single isomer, unassigned) [Example 52.2, 2-(N-[4-amino-5-(6-methoxypyridine-3-carbonyl)thiazol-2-yl]-3,4-difluoro-anilino)propanamide] | 11400 nM
CC(C(N)=O)N(c1ccc(F)c(F)c1)c1nc(N)c(C(=O)c2ccc(C(F)(F)F)nc2)s1 (single isomer, unassigned) [Example 53.2, 2-(N-[4-amino-5-[6-(trifluoromethyl)pyridine-3-carbonyl]thiazol-2-yl]-3,4-difluoro-anilino)propanamide] | 1780 nM
CC(C(N)=O)N(c1ccc(F)cc1)c1nc(N)c(C(=O)c2ccc(C(=O)NC3CCCC3)cc2)s1 (racemic) [Example 267, rac-4-[4-amino-2-(N-(2-amino-1-methyl-2-oxo-ethyl)-4-fluoro-anilino)thiazole-5-carbonyl]-N-cyclopentyi-benzamide] | 63 nM
CC(C(N)=O)N(c1ccc(F)cc1)c1nc(N)c(C(=O)c2ccc(Cl)c(C(F)(F)F)c2)s1 (racemic) [Example 10, rac-2-(N-[4-amino-5-[4-chloro-3-(trifluoromethyl)benzoyl]thiazol-2-yl]-4-fluoro-anilino)propanamide] | 425 nM
CC(C(N)=O)N(c1ccc(F)cc1)c1nc(N)c(C(=O)c2ccc(F)c(F)c2)s1 (racemic) [Example 25, rac-2-(N-[4-amino-5-(3,4-difluorobenzoyl)thiazol-2-yl]-4-fluoro-anilino)propanamide] | 101 nM
CC(C(N)=O)N(c1ccc(Cl)c(F)c1)c1nc(N)c(C(=O)c2ccc(OC(F)F)nc2)s1 (racemic) [Example 164, rac-2-(N-[4-amino-5-[6-(difluoromethoxy)pyridine-3-carbonyl]thiazol-2-yl]-4-chloro-3-fluoro-anilino)propanamide] | 7 nM
CC(C(N)=O)N(c1ccc(F)cc1)c1nc(N)c(C(=O)c2ccc(OCc3ccccc3)cc2)s1 (racemic) [Example 158, rac-2-(N-[4-amino-5-(4-benzyloxybenzoyl)thiazol-2-yl]-4-fluoro-anilino)propanamide] | 6.71 nM
Cc1ccc(C(=O)c2sc(N(c3ccc(F)cc3)C(C)C(N)=O)nc2N)cn1 (racemic) [Example 6, rac-2-(N-[4-amino-5-(6-methylpyridine-3-carbonyl)thiazol-2-yl]-4-fluoro-anilino)propanamide] | 740 nM
CC(C(N)=O)N(c1ccc(OC(F)F)nc1)c1nc(N)c(C(=O)c2ccc(OC(F)F)nc2)s1 (racemic) [Example 255, rac-2-[[4-amino-5-[6-(difluoromethoxy)pyridine-3-carbonyl]thiazol-2-yl]-[6-(difluoromethoxy)-3-pyridyl]amino]propanamide] | 76 nM
CC(C(N)=O)N(c1ccc(F)cc1)c1nc(N)c(C(=O)c2ccc(OCC(=O)NCC(C)(C)C)cc2)s1 (racemic) [Example 141, rac-2-(N-[4-amino-5-[4-[2-(2,2-dimethylpropylamino)-2-oxo-ethoxy]benzoyl]thiazol-2-yl]-4-fluoro-anilino)propanamide] | 389 nM
CC(C(N)=O)N(c1ccc(F)c(F)c1)c1nc(N)c(C(=O)c2ccncc2)s1 (racemic) [Example 50, rac-2-(N-[4-amino-5-(pyridine-4-carbonyl)thiazol-2-yl]-3,4-difluoro-anilino)propanamide] | 378 nM
CC(C(N)=O)N(c1ccc(F)cc1)c1nc(N)c(C(=O)c2ccc(N3CCC(C)(C#N)CC3)nc2)s1 (racemic) [Example 285, rac-2-(N-[4-amino-5-[6-(4-cyano-4-methyl-1-piperidy!)pyridine-3-carbonyl]thiazol-2-yl]-4-fluoro-anilino)propanamide] | 68 nM
